Measured values from ChEMBL document CHEMBL4359843, “Linear and Rationally Designed Stapled Peptides Abrogate TLR4 Pathway and Relieve Inflammatory Symptoms in Rheumatoid Arthritis Rat Model” (J Med Chem, 2019).
Activity calls are given as the source filed them. No cut-off for these calls is given here. Where a SMILES comes first, the peptide text is derived from it. Bridges are numbered along the chain shown (N, C = ends).

What was measured:
[1] = target: Toll-like receptor 1/2 (Homo sapiens) (UniProt O60603+Q15399); assay: Antagonist activity at TLR2/1 in human THP1 cells assessed as reduction in PAM3CSK4-induced IL6 secretion at 50 uM after 24 hrs by ELISA; type: cell-based
Rattus norvegicus [2] = assay: (§1) Antiarthritic activity in Lewis rat model of complete Freund's adjuvant-induced arthritis assessed as reduction in inflammation synovial tissues at 1 nmol/g administered intra-articularly into knee joint after 1 week by Safranin-O staining based histopathological analysis; type: functional, organism-based
Toll-like receptor 4 [3] = target: T1, Toll-like receptor 4 (Homo sapiens, UniProt O00206); assay: Antagonist activity at TLR4 in human THP1 cells assessed as reduction in LPS-induced IL6 secretion at 50 uM after 24 hrs by ELISA; type: cell-based
Toll-like receptor 4 [4] = target: T1, Toll-like receptor 4; assay: Antagonist activity at TLR4 in human THP1 cells assessed as reduction in LPS-induced p38 phosphorylation at 50 uM after 15 to 30 mins by Western blot analysis; type: cell-based
[5] = target: T2, Toll-like receptor 4 (Mus musculus) (UniProt Q9QUK6); assay: Antagonist activity at TLR4 in mouse RAW264.7 cells assessed as reduction in LPS-induced cytosolic NO level at 50 uM by DAF-FM staining based FACS analysis; type: cell-based
T2 sequence (whole entry): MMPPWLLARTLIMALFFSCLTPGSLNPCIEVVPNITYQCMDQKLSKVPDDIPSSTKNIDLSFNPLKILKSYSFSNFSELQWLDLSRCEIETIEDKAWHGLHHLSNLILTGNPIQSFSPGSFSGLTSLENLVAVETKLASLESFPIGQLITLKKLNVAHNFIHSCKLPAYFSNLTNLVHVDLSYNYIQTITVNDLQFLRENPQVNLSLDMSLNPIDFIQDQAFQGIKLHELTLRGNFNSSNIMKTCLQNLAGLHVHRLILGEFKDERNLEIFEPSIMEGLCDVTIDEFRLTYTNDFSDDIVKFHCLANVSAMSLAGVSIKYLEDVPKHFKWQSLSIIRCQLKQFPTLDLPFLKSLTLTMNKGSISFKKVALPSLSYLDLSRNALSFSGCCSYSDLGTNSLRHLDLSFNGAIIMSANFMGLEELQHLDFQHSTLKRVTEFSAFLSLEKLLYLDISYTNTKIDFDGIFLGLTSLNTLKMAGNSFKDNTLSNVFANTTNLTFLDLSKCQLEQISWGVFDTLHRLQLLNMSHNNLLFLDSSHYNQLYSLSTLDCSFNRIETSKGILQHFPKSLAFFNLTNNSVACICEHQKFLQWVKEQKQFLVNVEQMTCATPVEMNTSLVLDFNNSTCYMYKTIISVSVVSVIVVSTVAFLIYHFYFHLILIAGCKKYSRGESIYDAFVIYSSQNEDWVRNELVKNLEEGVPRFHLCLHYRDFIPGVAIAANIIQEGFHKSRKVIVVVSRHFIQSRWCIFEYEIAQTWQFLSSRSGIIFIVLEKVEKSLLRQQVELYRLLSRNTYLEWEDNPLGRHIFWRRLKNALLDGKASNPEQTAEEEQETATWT

Rattus norvegicus [6] = assay: Antiarthritic activity in Lewis rat model of complete Freund's adjuvant-induced arthritis assessed as reduction in ankle swelling and edema at 1 nmol/g administered intra-articularly into knee joint after 2 weeks by visual analysis; type: functional, organism-based
Rattus norvegicus [7] = assay: Antiarthritic activity in Lewis rat model of complete Freund's adjuvant-induced arthritis assessed as reduction in inflammation synovial tissues at 1 nmol/g administered intra-articularly into knee joint after 6 week by Safranin-O staining based histopathological analysis; type: functional, organism-based
Rattus norvegicus [8] = assay: as §1, with “appearance of rounded mature chondrocytes surrounded by GAG deposition” for “reduction in inflammation synovial tissues”, “and measured on third” for “after 1”; type: functional, organism-based
Rattus norvegicus [9] = assay: Antiarthritic activity in Lewis rat model of complete Freund's adjuvant-induced arthritis assessed as appearance of osteocytes at 1 nmol/g administered intra-articularly into knee joint after 1 week by H and E staining based histopathological analysis; type: functional, organism-based
Rattus norvegicus [10] = assay: Antiarthritic activity in Lewis rat model of complete Freund's adjuvant-induced arthritis assessed as reduction in mean articular index score at 1 nmol/g administered intra-articularly into knee joint for 6 weeks and measured every week during compound dosing; type: functional, organism-based
TLR2/TLR6 (Homo sapiens) = TLR2/TLR6 (Homo sapiens) (UniProt O60603+Q9Y2C9); assay: Antagonist activity at TLR2/6 in human THP1 cells assessed as reduction in FSL-1-induced IL6 secretion at 50 uM after 24 hrs by ELISA; type: cell-based
Toll-like receptor 4 [11] = target: T1, Toll-like receptor 4; assay: Antagonist activity at TLR4 in human PBMC cells assessed as reduction in LPS-induced p38 phosphorylation at 80 uM after 15 to 30 mins by Western blot analysis; type: cell-based
[12] = target: Toll-like receptor 2 (Homo sapiens) (UniProt O60603); assay: Non-specific binding affinity to human TLR2 up to 200 uM by surface plasmon resonance analysis
[13] = target: T2, Toll-like receptor 4 (Mus musculus); assay: Antagonist activity at TLR4 in mouse RAW264.7 cells assessed as reduction in LPS-induced cytosolic ROS level at 80 uM by DCF-DA staining based FACS analysis; type: cell-based
Toll-like receptor 4 [14] = target: T1, Toll-like receptor 4; assay: Antagonist activity at TLR4 in human PBMC cells assessed as reduction in LPS-induced TNFalpha secretion at 20 to 80 uM after 24 hrs by ELISA; type: cell-based
Toll-like receptor 4 [15] = target: T1, Toll-like receptor 4; assay: Antagonist activity at TLR4 in human PBMC cells assessed as reduction in LPS-induced IL6 secretion at 20 to 80 uM after 24 hrs by ELISA; type: cell-based
Toll-like receptor 4 [16] = target: T1, Toll-like receptor 4; assay: Antagonist activity at TLR4 in human PBMC cells assessed as reduction in LPS-induced NFkappaB p65 phosphorylation at 80 uM after 15 to 30 mins by Western blot analysis; type: cell-based
[17] = target: T2, Toll-like receptor 4 (Mus musculus); assay: Antagonist activity at TLR4 in mouse BMDM cells assessed as reduction in LPS-induced IFNbeta secretion at 20 to 80 uM after 24 hrs by ELISA; type: cell-based
TLR2/TLR6 (Mus musculus) = TLR2/TLR6 (Mus musculus) (UniProt Q9QUN7+Q9EPW9); assay: Antagonist activity at TLR2/6 in mouse RAW264.7 cells assessed as reduction in FSL-1-induced TNFalpha secretion at 20 to 80 uM after 24 hrs by ELISA; type: cell-based
[18] = target: T2, Toll-like receptor 4 (Mus musculus); assay: Antagonist activity at TLR4 in mouse RAW264.7 cells assessed as reduction in LPS-induced IRF3 phosphorylation at 80 uM after 120 to 240 mins by Western blot analysis; type: cell-based
RAW264.7 = assay: Antagonist activity at TLR7/8 in mouse RAW264.7 cells assessed as reduction in R848-induced TNFalpha secretion at 20 to 80 uM after 24 hrs by ELISA; type: cell-based
[19] = target: T2, Toll-like receptor 4 (Mus musculus); assay: Antagonist activity at TLR4 in mouse RAW264.7 cells assessed as reduction in LPS-induced extracellular NO secretion at 20 to 80 uM by spectrophotometric method; type: cell-based
[20] = target: T2, Toll-like receptor 4 (Mus musculus); assay: Antagonist activity at TLR4 in mouse RAW264.7 cells assessed as reduction in LPS-induced iNOS expression at 80 uM by Western blot analysis; type: cell-based
Mus musculus = assay: Antiinflammatory activity in C57BL/6J mouse assessed as reduction in LPS-induced TNFalpha secretion at 70 nmol/g, ip pretreated for 1 hr followed by LPS challenge and measured after 2 hrs by ELISA; type: functional, organism-based

T1 sequence (O00206 whole entry): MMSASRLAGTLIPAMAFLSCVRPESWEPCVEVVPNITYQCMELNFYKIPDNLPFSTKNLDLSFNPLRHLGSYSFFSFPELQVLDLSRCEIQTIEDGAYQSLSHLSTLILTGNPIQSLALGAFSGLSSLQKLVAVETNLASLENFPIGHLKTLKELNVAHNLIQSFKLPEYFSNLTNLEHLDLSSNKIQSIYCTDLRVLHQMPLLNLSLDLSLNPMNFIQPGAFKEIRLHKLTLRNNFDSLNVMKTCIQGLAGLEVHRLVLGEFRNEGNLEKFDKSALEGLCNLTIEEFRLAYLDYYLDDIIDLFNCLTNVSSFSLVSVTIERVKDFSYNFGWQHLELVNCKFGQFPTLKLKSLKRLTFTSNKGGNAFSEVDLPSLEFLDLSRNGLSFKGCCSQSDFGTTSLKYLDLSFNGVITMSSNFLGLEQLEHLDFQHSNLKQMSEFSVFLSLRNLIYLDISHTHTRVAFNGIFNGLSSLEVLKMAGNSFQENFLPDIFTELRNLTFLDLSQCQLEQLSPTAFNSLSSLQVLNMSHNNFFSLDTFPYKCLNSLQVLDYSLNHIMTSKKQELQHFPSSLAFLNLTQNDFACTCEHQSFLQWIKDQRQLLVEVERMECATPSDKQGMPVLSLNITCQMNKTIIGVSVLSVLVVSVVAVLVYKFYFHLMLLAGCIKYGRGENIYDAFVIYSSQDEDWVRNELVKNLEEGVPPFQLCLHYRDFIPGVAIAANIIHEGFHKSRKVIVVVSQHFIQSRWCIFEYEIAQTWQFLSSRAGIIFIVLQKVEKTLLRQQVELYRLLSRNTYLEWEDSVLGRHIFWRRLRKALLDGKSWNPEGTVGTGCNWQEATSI
Toll-like receptor 2 (Homo sapiens), sequence (O60603 whole entry): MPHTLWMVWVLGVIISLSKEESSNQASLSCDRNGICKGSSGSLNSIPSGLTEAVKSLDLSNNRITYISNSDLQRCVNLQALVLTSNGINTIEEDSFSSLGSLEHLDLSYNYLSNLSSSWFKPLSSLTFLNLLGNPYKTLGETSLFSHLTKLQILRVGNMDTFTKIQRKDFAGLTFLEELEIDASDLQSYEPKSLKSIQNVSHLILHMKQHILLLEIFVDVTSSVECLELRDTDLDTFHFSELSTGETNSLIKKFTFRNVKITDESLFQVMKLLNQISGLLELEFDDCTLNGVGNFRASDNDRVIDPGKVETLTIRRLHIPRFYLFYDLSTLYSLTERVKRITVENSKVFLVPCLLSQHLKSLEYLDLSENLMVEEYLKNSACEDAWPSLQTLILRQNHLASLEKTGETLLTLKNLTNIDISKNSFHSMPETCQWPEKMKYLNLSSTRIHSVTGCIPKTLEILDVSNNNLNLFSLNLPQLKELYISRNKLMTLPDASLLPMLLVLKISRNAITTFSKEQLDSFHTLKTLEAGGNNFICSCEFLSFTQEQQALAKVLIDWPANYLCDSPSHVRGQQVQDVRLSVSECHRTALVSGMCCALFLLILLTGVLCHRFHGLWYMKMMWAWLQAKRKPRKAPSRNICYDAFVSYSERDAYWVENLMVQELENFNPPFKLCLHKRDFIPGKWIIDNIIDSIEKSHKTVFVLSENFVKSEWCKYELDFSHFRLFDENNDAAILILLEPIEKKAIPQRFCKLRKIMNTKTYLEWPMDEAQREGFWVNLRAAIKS

For `CC[C@H](C)[C@@H]1NC(=O)[C@H](Cc2c[nH]c3ccccc23)NC(=O)[C@H](Cc2c[nH]c3ccccc23)NC(=O)[C@@H](NC(=O)[C@H](CO)NC(=O)[C@H](Cc2ccccc2)NC(=O)[C@@H](NC(=O)CNC(=O)[C@@H](N)CC(C)C)C(C)C)CC(=O)NCCCC[C@@H](C(=O)N[C@@H](CC(C)C)C(=O)N[C@H](C(=O)O)C(C)C)NC1=O` (H-LGVFSDWWIKLV-OH; lactam 6-10), the Activity [1] was “Active”, the Activity (Rattus norvegicus [2]) was “Active” and the Activity (Toll-like receptor 4 [3]) was “Active”. The Activity (Toll-like receptor 4 [4]) was “Active”, the Activity [5] was “Active” and the Activity (Rattus norvegicus [6]) was “Active”. The Activity (Rattus norvegicus [7]) was “Active”, the Activity (Rattus norvegicus [8]) was “Active” and the Activity (Rattus norvegicus [9]) was “Active”. For the same compound, the Activity (Rattus norvegicus [10]) was “Active” and the Activity (TLR2/TLR6 (Homo sapiens)) was “Active”.
In the case of H-LGVFSSWWIKLV-OH, the Activity (Toll-like receptor 4 [11]) is reported as “Active”, the Activity [12] is reported as “Active” and the Activity [13] is reported as “Active”. The Activity (Toll-like receptor 4 [14]) was “Active”, the Activity (Toll-like receptor 4 [15]) was “Active” and the Activity (Toll-like receptor 4 [16]) was “Active”. The Activity [17] was “Active”, the Activity (TLR2/TLR6 (Mus musculus)) was “inactive” and the Activity [18] was “Active”. For the same compound, the Activity (RAW264.7) was “inactive”, the Activity [19] was “Active” and the Activity [20] was “Active”. The Activity (Mus musculus) was “Active”.
